Consider 16 molecules from patent EP4813991A1 (iLeadBMS Co., Ltd., priority 2023, dated 2025).

Read-outs that look alike come from different tables or passages of the source. Some results are limits rather than exact numbers.

In test [1] the target is T1, CDK12 (Homo sapiens, UniProt Q9NYV4). As to the kind of experiment: CDK12 kinase inhibitory activity assay (33P-ATP filter binding). The test is classed as biochemical. On the procedure:
(§1) Before initiating the CDK12 and CDK13 kinase reactions, each Example compound was dissolved and diluted in DMSO as a solvent across 9 concentration ranges at room temperature. The diluted solutions were then incubated with a mixture of kinase and substrate (and cofactors, if required) for 20 minutes. Next, radioisotope-labeled ATP (^33P-gamma-ATP) was added to proceed with the kinase reaction at room temperature for 120 minutes. After the reaction was completed, the reaction mixture was transferred to a filter paper that binds the radioisotope-labeled catalytic product (^33P-substrate). Unreacted ^33P-ATP was removed by washing with 0.75 % phosphoric acid, and then the radioactive phosphorylated substrate remaining on the filter paper was measured. Kinase activity data were expressed as a percentage of the kinase activity remaining in the test sample compared to a DMSO control group. The half-maximal inhibitory concentration (IC50) for each kinase was calculated using Prism (Graphpad) software.

The next test concerns the target CDK13 (Homo sapiens, UniProt Q14004). As to the kind of experiment: CDK13 kinase inhibitory activity assay (33P-ATP filter binding). The test is classed as biochemical. On the procedure:
as §1

Test [2] has as its system MDA-MB-231 breast cancer cells. In words: Proliferation inhibitory activity assay against MDA-MB-231 breast cancer cells. It counts as cell-based. Particulars: Homo sapiens, 72 hours, CellTiter Glo, relative IC50. On the procedure: Experiments were performed using the MDA-MB-231 breast cancer cell line to measure the cell proliferation inhibitory ability of each Example compound. MDA-MB-231 cells were dispensed into a 96-well plate at 100 µL of cell suspension per well using L-15 (Invitrogen) medium containing 10 % FBS, followed by incubation in a cell incubator at 37 °C and 0 % CO2. The next day, each Example compound dissolved and diluted in DMSO across 9 concentration ranges and a DMSO control group were treated on the cells for 72 hours. After the compound treatment was completed, 100 µL of CellTiter Glo (Promega) reagent was added to each well of the 96-well plate, followed by shaking for 10 minutes and standing at room temperature for 10 minutes. Luminescence signals were measured after inserting the 96-well plate into an Envision plate reader (PerkinElmer). Relative IC50 values were calculated by fitting a dose-response curve using XLfit (IDBS Ltd) software.
The breast cancer cell proliferation inhibitory activities of the Example compounds measured by the above method were evaluated according to the following criteria, and the results are presented in Table 13.

The target in test [3] is T1, CDK12. In words: Cellular CDK12 inhibitory activity assay (Ser2 phosphorylation of RNA polymerase II subunit B1 CTD in MDA-MB-231 cells). It counts as cell-based. Also on record: using MDA-MB-231 breast cancer cells; endogenous in cells; host or cells: MDA-MB-231. On the procedure:
MDA-MB-231 cells were dispensed into a 96-well plate at 100 µL of cell suspension per well using L-15 (Invitrogen) medium containing 10 % FBS, followed by overnight incubation in a cell incubator at 37 °C and 0 % CO2. The next day, each Example compound dissolved in DMSO across 9 concentration ranges and a DMSO control group were treated on the MDA-MB-231 cells at 37 °C and 0 % CO2 for 6 hours. After the compound treatment, the medium in the 96-well plate was removed, and 60 µL of a fixing solution (4.0 % paraformaldehyde in PBS) was added to each well, followed by standing for 20 minutes. After removing the fixing solution and washing with PBS, 60 µL of PBS containing 0.1 % Triton X-100 was dispensed into each well, followed by shaking at room temperature for 15 minutes. After washing with PBS, 100 µL of blocking buffer was added, followed by shaking at room temperature for 1 hour. After removing the blocking buffer, primary antibodies, which are RNA polymerase II subunit B1 phospho-Ser2 (1:500, Cell signaling technology) and RNA polymerase II subunit B1 carboxy-terminal domain (1:200, Cell signaling technology), were added at 60 µL per well and reacted overnight at 4 °C. After adding 150 µL of PBS containing 0.1 % Triton X-100 and washing at least twice by shaking at room temperature for 5 minutes, 60 µL of a secondary antibody was added, followed by shaking at room temperature for 1 hour while blocking light. After adding 150 µL of PBS containing 0.1 % Triton X-100 and washing at least twice by shaking at room temperature for 5 minutes, 150 µL of PBS was added again, followed by washing at least twice by shaking at room temperature for 5 minutes. The plate was scanned using a Li-COR Odyssey machine with the wells filled with PBS. IC50 values were calculated by fitting a dose-response curve using a 4-parameter model of Prism (Graphpad) software.

Where [4] appears, read: kinase reaction 120 minutes, 33P-gamma-ATP, read-out: CDK12 IC50.
Setting [5] is: MDA-MB-231 cells, 6 hours treatment, read-out: pRpbl CTD S2 IC50.
Setting [6] is: kinase reaction 120 minutes, 33P-gamma-ATP, read-out: CDK13 IC50.

CDK13, sequence (Q14004 whole entry, species assumed): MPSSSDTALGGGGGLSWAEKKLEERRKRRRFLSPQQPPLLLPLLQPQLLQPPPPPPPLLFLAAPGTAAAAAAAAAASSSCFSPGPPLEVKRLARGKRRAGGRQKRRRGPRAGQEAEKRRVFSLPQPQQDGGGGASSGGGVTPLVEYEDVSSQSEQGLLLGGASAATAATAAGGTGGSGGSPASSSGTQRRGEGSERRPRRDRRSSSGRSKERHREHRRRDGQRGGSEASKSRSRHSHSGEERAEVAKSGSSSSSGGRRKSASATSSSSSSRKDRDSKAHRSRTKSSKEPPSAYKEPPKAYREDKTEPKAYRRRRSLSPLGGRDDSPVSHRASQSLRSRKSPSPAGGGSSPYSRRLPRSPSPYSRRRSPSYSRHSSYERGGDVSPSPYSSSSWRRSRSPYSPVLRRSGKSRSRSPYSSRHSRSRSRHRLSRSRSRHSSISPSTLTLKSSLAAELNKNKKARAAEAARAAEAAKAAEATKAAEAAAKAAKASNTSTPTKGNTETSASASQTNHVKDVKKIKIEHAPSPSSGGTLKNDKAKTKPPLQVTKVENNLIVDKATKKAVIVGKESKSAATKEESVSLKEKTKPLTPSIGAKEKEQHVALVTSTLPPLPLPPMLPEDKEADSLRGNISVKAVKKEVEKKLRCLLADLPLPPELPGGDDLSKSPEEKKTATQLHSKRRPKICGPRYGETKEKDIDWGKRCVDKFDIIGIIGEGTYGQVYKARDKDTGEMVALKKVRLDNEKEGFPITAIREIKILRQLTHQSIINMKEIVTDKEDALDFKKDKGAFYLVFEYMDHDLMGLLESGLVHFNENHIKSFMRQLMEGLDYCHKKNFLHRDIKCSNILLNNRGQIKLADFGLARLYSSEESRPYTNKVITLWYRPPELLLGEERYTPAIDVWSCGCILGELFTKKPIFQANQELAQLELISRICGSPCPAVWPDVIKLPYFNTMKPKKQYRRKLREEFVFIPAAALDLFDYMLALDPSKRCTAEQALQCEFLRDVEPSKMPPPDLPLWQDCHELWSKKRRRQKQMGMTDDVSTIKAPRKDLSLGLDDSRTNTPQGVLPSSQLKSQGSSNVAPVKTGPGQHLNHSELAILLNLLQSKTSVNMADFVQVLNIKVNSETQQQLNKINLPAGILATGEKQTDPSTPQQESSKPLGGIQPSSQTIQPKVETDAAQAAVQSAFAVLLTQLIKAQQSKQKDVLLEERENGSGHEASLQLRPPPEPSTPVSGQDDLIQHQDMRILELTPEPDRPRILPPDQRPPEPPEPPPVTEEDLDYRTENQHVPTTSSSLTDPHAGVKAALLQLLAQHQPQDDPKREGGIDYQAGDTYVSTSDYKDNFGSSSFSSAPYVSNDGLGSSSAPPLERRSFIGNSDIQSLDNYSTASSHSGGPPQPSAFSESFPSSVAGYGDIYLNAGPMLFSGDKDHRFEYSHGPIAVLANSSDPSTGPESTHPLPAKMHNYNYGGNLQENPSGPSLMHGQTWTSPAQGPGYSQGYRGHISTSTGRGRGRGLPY
CDK13, sequence (O75909 whole entry partner, species assumed): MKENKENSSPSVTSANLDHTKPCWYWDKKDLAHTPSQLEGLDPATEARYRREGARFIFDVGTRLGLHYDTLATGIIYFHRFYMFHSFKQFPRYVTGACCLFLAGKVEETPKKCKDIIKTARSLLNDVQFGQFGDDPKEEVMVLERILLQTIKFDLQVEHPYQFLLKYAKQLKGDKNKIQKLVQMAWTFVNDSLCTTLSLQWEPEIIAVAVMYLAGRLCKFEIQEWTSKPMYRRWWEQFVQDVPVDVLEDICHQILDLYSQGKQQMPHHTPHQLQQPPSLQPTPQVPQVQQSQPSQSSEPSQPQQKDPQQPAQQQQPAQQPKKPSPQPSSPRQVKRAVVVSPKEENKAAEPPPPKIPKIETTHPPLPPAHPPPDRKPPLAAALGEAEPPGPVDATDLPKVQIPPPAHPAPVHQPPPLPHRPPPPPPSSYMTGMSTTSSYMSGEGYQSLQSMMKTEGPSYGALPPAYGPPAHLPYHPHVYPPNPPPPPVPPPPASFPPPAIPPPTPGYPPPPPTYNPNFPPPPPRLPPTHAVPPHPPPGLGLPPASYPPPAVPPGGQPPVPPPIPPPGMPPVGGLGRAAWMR
T1 sequence (Q9NYV4 whole entry, species assumed): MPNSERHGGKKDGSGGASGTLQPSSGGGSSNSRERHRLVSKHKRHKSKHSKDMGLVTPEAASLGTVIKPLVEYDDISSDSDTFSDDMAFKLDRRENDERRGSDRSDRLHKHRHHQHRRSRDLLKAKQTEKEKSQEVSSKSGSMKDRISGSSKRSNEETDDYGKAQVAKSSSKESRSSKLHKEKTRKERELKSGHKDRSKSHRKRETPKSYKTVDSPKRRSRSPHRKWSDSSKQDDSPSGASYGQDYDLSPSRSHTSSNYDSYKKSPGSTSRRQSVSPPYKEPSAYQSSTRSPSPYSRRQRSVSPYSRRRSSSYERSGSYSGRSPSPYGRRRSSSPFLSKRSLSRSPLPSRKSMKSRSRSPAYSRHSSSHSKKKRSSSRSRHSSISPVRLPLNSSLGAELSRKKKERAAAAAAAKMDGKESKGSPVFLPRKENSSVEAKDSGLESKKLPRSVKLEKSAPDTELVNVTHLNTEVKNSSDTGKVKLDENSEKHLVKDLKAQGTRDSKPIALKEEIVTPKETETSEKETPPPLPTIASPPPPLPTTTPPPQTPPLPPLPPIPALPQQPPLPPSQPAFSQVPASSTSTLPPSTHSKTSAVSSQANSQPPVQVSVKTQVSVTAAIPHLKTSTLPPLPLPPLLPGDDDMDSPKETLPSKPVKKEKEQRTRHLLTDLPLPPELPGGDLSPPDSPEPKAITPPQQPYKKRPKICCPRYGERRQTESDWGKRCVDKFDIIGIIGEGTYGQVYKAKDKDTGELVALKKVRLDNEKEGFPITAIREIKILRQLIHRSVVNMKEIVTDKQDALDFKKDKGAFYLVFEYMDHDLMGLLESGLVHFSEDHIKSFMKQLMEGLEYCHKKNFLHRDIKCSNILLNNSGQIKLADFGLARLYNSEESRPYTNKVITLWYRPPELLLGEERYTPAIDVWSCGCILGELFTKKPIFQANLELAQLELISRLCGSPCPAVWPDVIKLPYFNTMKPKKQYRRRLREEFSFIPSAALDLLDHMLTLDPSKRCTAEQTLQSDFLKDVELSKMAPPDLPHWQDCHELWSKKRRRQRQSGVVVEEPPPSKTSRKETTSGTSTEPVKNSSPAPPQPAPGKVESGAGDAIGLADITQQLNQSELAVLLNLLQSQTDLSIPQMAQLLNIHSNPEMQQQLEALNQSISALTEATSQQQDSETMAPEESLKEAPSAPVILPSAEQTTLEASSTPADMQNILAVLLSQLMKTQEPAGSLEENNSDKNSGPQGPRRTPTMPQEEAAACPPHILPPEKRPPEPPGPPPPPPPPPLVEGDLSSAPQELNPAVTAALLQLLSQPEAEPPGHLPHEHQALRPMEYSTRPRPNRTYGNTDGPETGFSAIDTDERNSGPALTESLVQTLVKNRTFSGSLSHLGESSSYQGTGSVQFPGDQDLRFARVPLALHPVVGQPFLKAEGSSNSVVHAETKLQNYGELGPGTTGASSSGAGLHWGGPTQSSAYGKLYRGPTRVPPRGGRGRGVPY
T1 sequence (O75909 whole entry partner, species assumed): as the sequence (O75909 whole entry partner, species assumed) above

As to `FC(F)(F)c1cnc2c(NCc3cn4ccccc4n3)cc(N3CCOCC3)nn12` [Example 82, N-(imidazo[1,2-a]pyridin-2-ylmethyl)-6-morpholino-3-(trifluoromethyl)imidazo[1,2-b]pyridazin-8-amine], the IC50 (commonly the concentration at which inhibition is half-maximal) was less than 100 nM on CDK12 [1] (setting [4]), less than 100 nM on CDK13, 50 to 500 nM in test [2] and 300 to 3000 nM at CDK12 [3] (setting [5]).

With `N#CC1(O)CCN(c2cc(NCc3nc4cc(Cl)c(Cl)cc4[nH]3)c3ncc(C(F)(F)F)n3n2)C1` (centres unmarked) [Example 61, 1-(8-(((5,6-dichloro-1H-benzo[d]imidazol-2-yl)methyl)amino)-3-(trifluoromethyl)imidazo[1,2-b]pyridazin-6-yl)-3-hydroxypyrrolidine-3-carbonitrile], the 50% inhibitory concentration (IC50) on CDK12 [1] (setting [4]) is 100 to 500 nM; at CDK13 (setting [6]), 100 to 500 nM; in test [2], no more than 50 nM; on CDK12 [3] (setting [5]), less than 300 nM.

For `FC(F)(F)c1cnc2c(NCc3nc4cc(Cl)c(Cl)cc4[nH]3)cc(N3C4CCC3CNC4)nn12` [Example 95, 6-(3,8-diazabicyclo[3.2.1]octan-8-yl)-N-((5,6-dichloro-1H-benzo[d]imidazol-2-yl)methyl)-3-(trifluoromethyl)imidazo[1,2-b]pyridazin-8-amine], the 50% inhibitory concentration (IC50) on CDK12 [1] (setting [4]) is less than 100 nM; on CDK13 (setting [6]) it was less than 100 nM; in test [2], no more than 50 nM; on CDK12 [3] (setting [5]), less than 300 nM.

Regarding `FC(F)(F)c1cnc2c(NCc3nc4ccncc4[nH]3)cc(N3CCOCC3)nn12` [Example 74, N-((3H-imidazo[4,5-c]pyridin-2-yl)methyl)-6-morpholino-3-(trifluoromethyl)imidazo[1,2-b]pyridazin-8-amine], the IC50 is less than 100 nM at CDK12 [1] (setting [4]), less than 100 nM at CDK13 (setting [6]), 50 to 500 nM in test [2] and 300 to 3000 nM on CDK12 [3] (setting [5]).

Turning to `FC(F)(F)c1cnc2c(NCc3cc4ncccc4[nH]3)cc(N3CCOCC3)nn12` [Example 87, N-((1H-pyrrolo[3,2-b]pyridin-2-yl)methyl)-6-morpholino-3-(trifluoromethyl)imidazo[1,2-b]pyridazin-8-amine], the half-maximal inhibitory concentration (IC50) is less than 100 nM at CDK12 [1] (setting [4]), less than 100 nM at CDK13, 50 to 500 nM in test [2] and 300 to 3000 nM on CDK12 [3] (setting [5]).

For `FC(F)(F)c1cnc2c(NCc3nc4cc(Cl)c(Cl)cc4[nH]3)cc(N3C4CNCC3C4)nn12` [Example 99, 6-(3,6-diazabicyclo[3.1.1]heptan-6-yl)-N-((5,6-dichloro-1H-benzo[d]imidazol-2-yl)methyl)-3-(trifluoromethyl)imidazo[1,2-b]pyridazin-8-amine], the concentration for half-maximal inhibition (IC50) is 100 to 500 nM on CDK12 [1] (setting [4]), 100 to 500 nM at CDK13 (setting [6]), no more than 50 nM in test [2] and less than 300 nM at CDK12 [3] (setting [5]).

On to `CN1CCN(c2cc(NCc3nc4cc(F)c(F)cc4[nH]3)c3ncc(C(F)(F)F)n3n2)CC1` [Example 110, N-((5,6-difluoro-1H-benzo[d]imidazol-2-yl)methyl)-6-(4-methylpiperazin-1-yl)-3-(trifluoromethyl)imidazo[1,2-b]pyridazin-8-amine], for which the IC50 at CDK12 [1] (setting [4]) is less than 100 nM; at CDK13 (setting [6]), less than 100 nM; in test [2] it was no more than 50 nM; on CDK12 [3] (setting [5]), less than 300 nM.

`N#CC1CCN(c2cc(NCc3nc4cc(Cl)c(Cl)cc4[nH]3)c3ncc(C(F)(F)F)n3n2)C1` (centres unmarked) [Example 49, 1-(8-(((5,6-dichloro-1H-benzo[d]imidazol-2-yl)methyl)amino)-3-(trifluoromethyl)imidazo[1,2-b]pyridazin-6-yl)pyrrolidine-3-carbonitrile]: the IC50 is less than 100 nM at CDK12 [1] (setting [4]), less than 100 nM at CDK13 (setting [6]), no more than 50 nM in test [2] and less than 300 nM at CDK12 [3] (setting [5]).

Take `OC1CC2CCC(C1)N2c1cc(NCc2nc3cc(Cl)c(Cl)cc3[nH]2)c2ncc(C(F)(F)F)n2n1` (centres unmarked) [Example 101, 8-(8-(((5,6-dichloro-1H-benzo[d]imidazol-2-yl)methyl)amino)-3-(trifluoromethyl)imidazo[1,2-b]pyridazin-6-yl)-8-azabicyclo[3.2.1]octan-3-ol]: the IC50 is 100 to 500 nM at CDK12 [1] (setting [4]), less than 100 nM at CDK13 (setting [6]), no more than 50 nM in test [2] and less than 300 nM at CDK12 [3] (setting [5]).

In the case of `N[C@@H]1CCN(c2cc(NCc3nc4ccc(F)c(F)c4[nH]3)c3ncc(C(F)(F)F)n3n2)C1` [Example 37], the concentration for half-maximal inhibition (IC50) on CDK12 [1] (setting [4]) was less than 100 nM; at CDK13 (setting [6]), less than 100 nM; in test [2], no more than 50 nM; at CDK12 [3] (setting [5]) it was less than 300 nM.

Turning to `NC(=O)N1CCN(c2cc(NCc3nc4ccc(F)c(F)c4[nH]3)c3ncc(C(F)(F)F)n3n2)CC1` [Example 92, 4-(8-(((6,7-difluoro-1H-benzo[d]imidazol-2-yl)methyl)amino)-3-(trifluoromethyl)imidazo[1,2-b]pyridazin-6-yl)piperazine-1-carboxamide], the IC50 on CDK12 [1] (setting [4]) was less than 100 nM; at CDK13, less than 100 nM; in test [2] it was 50 to 500 nM; at CDK12 [3] (setting [5]), 300 to 3000 nM.

For the molecule `CC1(O)CN(c2cc(NCc3nc4cc(Cl)c(Cl)cc4[nH]3)c3ncc(C(F)(F)F)n3n2)C1` [Example 52, 1-(8-(((5,6-dichloro-1H-benzo[d]imidazol-2-yl)methyl)amino)-3-(trifluoromethyl)imidazo[1,2-b]pyridazin-6-yl)-3-methylazetidin-3-ol], the IC50 on CDK12 [1] (setting [4]) is 100 to 500 nM; at CDK13 (setting [6]), less than 100 nM; in test [2] it was no more than 50 nM; at CDK12 [3] (setting [5]), less than 300 nM.

For `FC(F)(F)c1cnc2c(NCc3cn4cccnc4n3)cc(N3CCOCC3)nn12` [Example 83, N-(imidazo[1,2-a]pyrimidin-2-ylmethyl)-6-morpholino-3-(trifluoromethyl)imidazo[1,2-b]pyridazin-8-amine], the IC50 was less than 100 nM on CDK12 [1] (setting [4]), less than 100 nM at CDK13, 50 to 500 nM in test [2] and 300 to 3000 nM at CDK12 [3] (setting [5]).

`Nc1ncc(-c2cc(NCc3nc4cc(F)c(F)cc4[nH]3)c3ncc(C(F)(F)F)n3n2)cn1` [Example 113, 6-(2-aminopyrimidin-5-yl)-N-((5,6-difluoro-1H-benzo[d]imidazol-2-yl)methyl)-3-(trifluoromethyl)imidazo[1,2-b]pyridazin-8-amine]: the IC50 on CDK12 [1] (setting [4]) was less than 100 nM; on CDK13 (setting [6]), less than 100 nM; in test [2], no more than 50 nM; on CDK12 [3] (setting [5]), less than 300 nM.

Turning to `Fc1ccc2nc(CNc3cc(N4CCOCC4)nn4c(I)cnc34)[nH]c2c1F` [Example 26, N-((6,7-difluoro-1H-benzo[d]imidazol-2-yl)methyl)-3-iodo-6-morpholinoimidazo[1.2-b]pyridazin-8-amine], the IC50 is greater than 500 nM at CDK12 [1], greater than 500 nM on CDK13, greater than 500 nM in test [2] and greater than 3000 nM on CDK12 [3].

In the case of `N#CC1CN(c2cc(NCc3nc4ccc(F)c(F)c4[nH]3)c3ncc(C(F)(F)F)n3n2)C1` [Example 54, 1-(8-(((6,7-difluoro-1H-benzo[d]imidazol-2-yl)methyl)amino)-3-(trifluoromethyl)imidazo[1,2-b]pyridazin-6-yl)azetidine-3-carbonitrile], the half-inhibitory concentration (IC50) in test [2] fell in the range of 50 to 500 nM; on CDK12 [3] (setting [5]), 300 to 3000 nM.
